Article PMC9189845, “Structure–Activity Relationships of 8-Hydroxyquinoline-Derived Mannich Bases with Tertiary Amines Targeting Multidrug-Resistant Cancer” (Journal of Medicinal Chemistry, 2022)
Where two headings read alike, the source gives them in different places.

Experiments:
[1] = test system: MES-SA cells; assay: PrestoBlue viability assay, MES-SA cells; conditions: for pIC50 value MES-SA: MES-SA cells, without TQ
[2] = test system: MES-SA/Dx5 cells; assay: PrestoBlue viability assay, MES-SA/Dx5 cells (MDR, P-gp positive); conditions: for SR: selectivity ratio MES-SA vs MES-SA/Dx5, without TQ; for pIC50 value MES-SA/Dx5: MES-SA/Dx5 cells, without TQ; for SR_TQ: selectivity ratio MES-SA vs MES-SA/Dx5, with TQ; for SR (MES-SA_TQ / Dx5_TQ) (values in parentheses): fraction of IC50 in P-gp negative vs positive cells, presence of 1 μM TQ
[3] = Homo sapiens, MES-SA, 72 h, read-out: IC50 / μM MES-SA, absence of TQ, 72 h incubation
[4] = Homo sapiens, MES-SA/Dx5, 72 h, read-out: IC50 / μM MES-SA/Dx5, absence of TQ, 72 h incubation
[5] = Homo sapiens, MES-SA, read-out: pIC50 value MES-SA, MES-SA cells, without TQ (converted)
[6] = Homo sapiens, MES-SA/Dx5, read-out: pIC50 value MES-SA/Dx5, MES-SA/Dx5 cells, without TQ (converted)
[7] = read-out: IC50 / μM MES-SA, absence of TQ, 72 h incubation
[8] = read-out: IC50 / μM MES-SA/Dx5, absence of TQ, 72 h incubation
[9] = Homo sapiens, MES-SA, read-out: pIC50 value MES-SA+TQ, MES-SA cells, with TQ (converted)
[10] = Homo sapiens, MES-SA/Dx5, read-out: pIC50 value MES-SA/Dx5 + TQ, MES-SA/Dx5 cells, with TQ (converted)
[11] = Homo sapiens, MES-SA, read-out: IC50 / μM MES-SA (values in parentheses), presence of 1 μM P-gp inhibitor tariquidar (TQ)
[12] = Homo sapiens, MES-SA/Dx5, read-out: IC50 / μM MES-SA/Dx5 (values in parentheses), presence of 1 μM P-gp inhibitor tariquidar (TQ)

Molecule: Oc1ccc2ccncc2c1CN1CCCC(C(F)(F)F)C1 (centres unmarked) [Compound 64]
- IC50 [1, 3]: > 100 µM
- IC50 [2, 4]: > 100 µM

Molecule: Oc1c(C(c2ccncc2)N2CCCC2)ccc2cccnc12 (centres unmarked) [Compound 86]
- IC50 [1, 3]: 5.99 ± 0.88 µM
- IC50 [1, 5]: 5.89 µM
- IC50 [2, 4]: 3.66 ± 0.45 µM
- IC50 [2, 6]: 3.63 µM
- SR [2]: 1.64

Molecule: O=Cc1ccc(O)c(CN2CCCCC2)c1 [Compound 61]
- IC50 [1, 3]: > 100 µM
- IC50 [2, 4]: > 100 µM

Molecule: CCN(CC)Cc1ccc(O)c2ncccc12 [Compound 45]
- IC50 [1, 3]: 4.5 ± 0.04 µM
- IC50 [1, 5]: 4.47 µM
- IC50 [2, 4]: 5.02 ± 0.26 µM
- IC50 [2, 6]: 5.01 µM
- SR [2]: 0.9

Molecule: Oc1c(C(c2ccccc2Cl)N2CCCCC2)ccc2cccnc12 (centres unmarked) [Compound 95]
- pIC50 value MES-SA [1]: 4.77
- IC50 [1, 7]: 17.5 ± 4.45 µM
- pIC50 value MES-SA/Dx5 [2]: 5.04
- IC50 [2, 8]: 9.45 ± 2.11 µM
- SR_TQ [2]: 2.75
- SR [2]: 1.85

Molecule: Oc1c(C(c2ccncc2)N2CCCCC2)ccc2cccnc12 (centres unmarked) [Compound 93]
- pIC50 value MES-SA [1]: 4.81
- IC50 [1, 7]: 16.2 ± 4.33 µM
- pIC50 value MES-SA/Dx5 [2]: 5.08
- IC50 [2, 8]: 8.39 ± 1.09 µM
- SR_TQ [2]: 1.1
- SR [2]: 1.93

Molecule: CCN1CCN(C(c2cccnc2)c2ccc3cccnc3c2O)CC1 (centres unmarked) [Compound 115]
- IC50 [1, 3]: 20.6 ± 1.85 µM
- IC50 [1, 9]: 24 µM
- IC50 [1, 5]: 20.4 µM
- IC50 [2, 4]: 10.3 ± 3.54 µM
- IC50 [2, 10]: 22.9 µM
- IC50 [2, 6]: 9.77 µM
- SR_TQ [2]: 1.05
- SR [2]: 1.99

Molecule: CC1CCCCN1Cc1cc(Cl)c2cccnc2c1O (centres unmarked) [Compound 77]
- IC50 [1, 3]: 2.57 ± 0.1 µM
- IC50 [1, 11]: 2.35 µM
- IC50 [1, 9]: 2.34 µM
- IC50 [1, 5]: 2.57 µM
- IC50 [2, 4]: 0.34 ± 0.03 µM
- IC50 [2, 12]: 1.55 µM
- IC50 [2, 6]: 0.339 µM
- SR (MES-SA_TQ / Dx5_TQ) (values in parentheses) [2]: 1.51
- SR_TQ [2]: 1.51
- SR [2]: 7.57

Molecule: CN1CCN(Cc2c(O)ccc3ccccc23)CC1 [Compound 75]
- IC50 [1, 3]: > 100 µM
- IC50 [2, 4]: > 100 µM

Molecule: CN1CCN(C(c2cccs2)c2ccc3cccnc3c2O)CC1 (centres unmarked) [Compound 113]
- IC50 [1, 3]: 12.8 ± 1.72 µM
- IC50 [1, 5]: 12.6 µM
- IC50 [2, 4]: 16.79 ± 0.08 µM
- IC50 [2, 6]: 16.6 µM
- SR [2]: 0.76

Molecule: CN1CCN(C(c2cccnc2)c2ccc3cccnc3c2O)CC1 (centres unmarked) [Compound 111]
- IC50 [1, 3]: 54.8 ± 3.66 µM
- IC50 [1, 5]: 55 µM
- IC50 [2, 4]: 35.9 ± 4.93 µM
- IC50 [2, 6]: 35.5 µM
- SR [2]: 1.53

Molecule: Oc1ccccc1CN1CCCCC1 [Compound 59]
- IC50 [1, 3]: > 100 µM
- IC50 [2, 4]: > 100 µM

Molecule: Oc1c(C(c2ccccn2)N2CCN(c3ccccn3)CC2)ccc2cccnc12 (centres unmarked) [Compound 121]
- pIC50 value MES-SA [1]: 4.39
- IC50 [1, 7]: 40.9 ± 2.86 µM
- pIC50 value MES-SA/Dx5 [2]: 4.65
- IC50 [2, 8]: 22.6 ± 2.85 µM
- SR [2]: 1.81

Molecule: CC(=O)c1ccc(O)c(CN2CCCCC2)c1 [Compound 62]
- IC50 [1, 3]: > 100 µM
- IC50 [2, 4]: > 100 µM

Molecule: Oc1c(C(c2ccccn2)N2CCOCC2)ccc2cccnc12 (centres unmarked) [Compound 103]
- IC50 [1, 3]: 23.6 ± 3.13 µM
- IC50 [1, 5]: 23.4 µM
- IC50 [2, 4]: 14.6 ± 2.97 µM
- IC50 [2, 6]: 14.1 µM
- SR [2]: 1.62

Molecule: CCOC(=O)C1CCN(Cc2ccc(O)c3ncccc23)CC1 [Compound 48]
- IC50 [1, 3]: 4.62 ± 1.03 µM
- IC50 [1, 5]: 4.47 µM
- IC50 [2, 4]: 3.54 ± 0.72 µM
- IC50 [2, 6]: 3.47 µM
- SR [2]: 1.31

Molecule: Oc1c(CN2CCc3ccccc3C2)cc(Cl)c2cccnc12 [Compound 80]
- IC50 [1, 3]: 1.96 ± 0.22 µM
- IC50 [1, 11]: 1.81 µM
- IC50 [1, 9]: 1.78 µM
- IC50 [1, 5]: 1.95 µM
- IC50 [2, 4]: 0.27 ± 0.06 µM
- IC50 [2, 12]: 1.05 µM
- IC50 [2, 6]: 0.263 µM
- SR (MES-SA_TQ / Dx5_TQ) (values in parentheses) [2]: 1.72
- SR_TQ [2]: 1.72
- SR [2]: 7.21

Molecule: CC1CCN(C(c2ccccc2)c2ccc3cccnc3c2O)CC1 (racemic) [Compound 99]
- pIC50 value MES-SA [1]: 5.06
- IC50 [1, 7]: 8.77 ± 0.24 µM
- pIC50 value MES-SA/Dx5 [2]: 4.95
- IC50 [2, 8]: 11.5 ± 1.75 µM
- SR [2]: 0.76

Molecule: Oc1ccccc1CN1CCOCC1 [Compound 65]
- IC50 [1, 3]: > 100 µM
- IC50 [2, 4]: > 100 µM

Molecule: Oc1ccc(CN2CCc3ccccc3C2)c2cccnc12 [Compound 50]
- IC50 [1, 3]: 16.7 ± 1.5 µM
- IC50 [1, 5]: 16.6 µM
- IC50 [2, 4]: 17 ± 0.49 µM
- IC50 [2, 6]: 17 µM
- SR [2]: 0.99

Molecule: Oc1ccc(CN2CCOCC2)c2cccnc12 [Compound 54]
- IC50 [1, 3]: 6.99 ± 0.31 µM
- IC50 [1, 5]: 6.92 µM
- IC50 [2, 4]: 9.58 ± 0.33 µM
- IC50 [2, 6]: 9.55 µM
- SR [2]: 0.73

Molecule: O=C1CCCN1Cc1cc(Cl)c2cccnc2c1O [Compound 76]
- IC50 [1, 3]: 10.2 ± 0.25 µM
- IC50 [1, 5]: 10.2 µM
- IC50 [2, 4]: 12.2 ± 0.55 µM
- IC50 [2, 6]: 12 µM
- SR [2]: 0.84

Molecule: Cc1ccc(C(c2cc(Cl)c3cccnc3c2O)N2CCCC2)cc1 (centres unmarked) [Compound 91]
- IC50 [1, 3]: 13.2 ± 3.09 µM
- IC50 [1, 9]: 8.91 µM
- IC50 [1, 5]: 12.9 µM
- IC50 [2, 4]: 6.06 ± 2.21 µM
- IC50 [2, 10]: 2.34 µM
- IC50 [2, 6]: 5.62 µM
- SR_TQ [2]: 3.8
- SR [2]: 2.18

Molecule: Oc1c(C(c2ccc(F)cc2)N2CCOCC2)ccc2cccnc12 (centres unmarked) [Compound 106]
- pIC50 value MES-SA [1]: 4.51
- IC50 [1, 7]: 33.4 ± 13.2 µM
- pIC50 value MES-SA/Dx5 [2]: 4.86
- IC50 [2, 8]: 14.9 ± 6.17 µM
- SR_TQ [2]: 1.15
- SR [2]: 2.24

Molecule: Oc1ccc(CN2CCCC2)c2cccnc12 [Compound 46]
- IC50 [1, 3]: 7.81 ± 0.5 µM
- IC50 [1, 5]: 7.76 µM
- IC50 [2, 4]: 5.31 ± 0.52 µM
- IC50 [2, 6]: 5.25 µM
- SR [2]: 1.47

Molecule: CCN1CCN(C(c2cccnc2)c2cc(Cl)c3cccnc3c2O)CC1 (centres unmarked) [Compound 118]
- IC50 [1, 3]: 21.4 ± 0.84 µM
- IC50 [1, 5]: 21.4 µM
- IC50 [2, 4]: 23.1 ± 4.67 µM
- IC50 [2, 6]: 22.4 µM
- SR [2]: 0.92

Molecule: Oc1ccc2ccccc2c1CN1CCOCC1 [Compound 69]
- IC50 [1, 3]: > 100 µM
- IC50 [2, 4]: > 100 µM

Molecule: COc1ccc(C(C)=O)cc1CN1CCCCC1 [Compound 63]
- IC50 [1, 3]: > 100 µM
- IC50 [2, 4]: > 100 µM

Molecule: Oc1c(C(c2ccccc2Br)N2CCCC2)ccc2cccnc12 (racemic) [Compound 88]
- pIC50 value MES-SA [1]: 4.89
- IC50 [1, 7]: 13 ± 1.35 µM
- pIC50 value MES-SA/Dx5 [2]: 5.18
- IC50 [2, 8]: 6.6 ± 0.21 µM
- SR_TQ [2]: 1.55
- SR [2]: 1.98

Molecule: Oc1ccc(CN2CCCCCC2)c2cccnc12 [Compound 52]
- IC50 [1, 3]: 7.15 ± 0.27 µM
- IC50 [1, 5]: 7.08 µM
- IC50 [2, 4]: 5.84 ± 0.69 µM
- IC50 [2, 6]: 5.75 µM
- SR [2]: 1.23

Molecule: Oc1c(C(c2ccccc2)N2CCOCC2)ccc2cccnc12 (centres unmarked) [Compound 102]
- IC50 [1, 3]: 21.4 ± 1.01 µM
- IC50 [1, 5]: 21.4 µM
- IC50 [2, 4]: 11.7 ± 1.15 µM
- IC50 [2, 6]: 11.5 µM
- SR [2]: 1.84

Molecule: Oc1ccccc1C(=S)N1CCOCC1 [Compound 66]
- IC50 [1, 3]: > 100 µM
- IC50 [2, 4]: > 100 µM

Molecule: 2-((4-Methylpiperazin-1-yl)methyl)phenol [Compound 72]
- IC50 [1, 7]: > 100 µM
- IC50 [2, 8]: > 100 µM

Molecule: Oc1c(C(c2ccc(Cl)cc2)N2CCCC2)ccc2cccnc12 (centres unmarked) [Compound 87]
- pIC50 value MES-SA [1]: 4.71
- IC50 [1, 7]: 19.7 ± 2.25 µM
- pIC50 value MES-SA/Dx5 [2]: 5.18
- IC50 [2, 8]: 6.58 ± 0.53 µM
- SR_TQ [2]: 1.35
- SR [2]: 3

Molecule: COc1ccc(O)c(CN2CCCCC2)c1 [Compound 60]
- IC50 [1, 3]: > 100 µM
- IC50 [2, 4]: > 100 µM

Molecule: CC1CCN(C(c2ccncc2)c2ccc3cccnc3c2O)CC1 (centres unmarked) [Compound 100]
- pIC50 value MES-SA [1]: 4.78
- IC50 [1, 7]: 17.1 ± 3.89 µM
- pIC50 value MES-SA/Dx5 [2]: 5.21
- IC50 [2, 8]: 6.24 ± 1.17 µM
- SR_TQ [2]: 4.37
- SR [2]: 2.74

Molecule: O=C(c1ccccc1O)N1CCOCC1 [Compound 67]
- IC50 [1, 3]: > 100 µM
- IC50 [2, 4]: > 100 µM

Molecule: Oc1c(C(c2cccnc2)N2CCOCC2)cc(Cl)c2cccnc12 (centres unmarked) [Compound 109]
- IC50 [1, 3]: 51 ± 2.48 µM
- IC50 [1, 5]: 51.3 µM
- IC50 [2, 4]: 32.9 ± 7.06 µM
- IC50 [2, 6]: 32.4 µM
- SR [2]: 1.55
